# Experimental data published in patent US9981940B2, “Aryl sulfide derivatives and aryl sulfoxide derivatives as acaricides and insecticides” (BAYER CROPSCIENCE AKTIENGESELLSCHAFT, priority 2013, dated 2018).
# Assays:
# Tetranychus urticae = Tetranychus urticae spray test, OP-resistant (TETRUR); assay type: in vivo; details: after 6 days; for pest or weed control at 500 g/ha: Tetranychus urticae, 144 h, read-out: efficacy
# Method in brief: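 Bean leaf discs infested with all stages of an OP-resistant Tetranychus urticae strain sprayed with compound in acetone/DMF with alkylaryl polyglycol ether emulsifier, diluted in water. Efficacy in % scored after 6 days; 100% means all mites killed.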
# [1] = log P by HPLC (OECD Guideline 117), method [a] acidic range; assay type: physicochemical; details: for logP[a]: HPLC, method [a] acidic range; for chromatographic logP: reversed-phase C18 HPLC column, acidic range
# Description: (§1) The log P values were determined analogously to OECD Guideline 117 (EC Directive 92/69/EEC) by HPLC (high-performance liquid chromatography) using reversed-phase columns (C 18), by the following methods:
# [a] The LC-MS determination in the acidic range is effected at pH 2.7 with 0.1% aqueous formic acid and acetonitrile (contains 0.1% formic acid) as eluents; linear gradient from 10% acetonitrile to 95% acetonitrile.
# [2] = log P by HPLC (OECD Guideline 117), method [b] neutral range; assay type: physicochemical; details: for logP[b]: method [b] neutral range; for chromatographic logP: reversed-phase C18 HPLC column, pH 7.8, neutral range
# Description: as §1
# [b] The LC-MS determination in the neutral range is effected at pH 7.8 with 0.001 molar aqueous ammonium hydrogencarbonate solution and acetonitrile as eluents; linear gradient from 10% acetonitrile to 95% acetonitrile.
# [3] = pH 2.7, HPLC method [a], read-out: logP[a]
Structure (SMILES),logP[a] [1],logP[b] ([2]; HPLC),efficacy (Tetranychus urticae; application rate of 500 g/ha),further results
CCCOc1nn(-c2cc(SCC(F)(F)F)c(C)cc2F)c(=O)n1C [Example 127],3.61,3.57,100%,–
CCCSc1nn(-c2cc(SCC(F)(F)F)c(C)cc2F)c(=O)n1CC [Example 288],3.18,3.13,100%,–
Cc1cc(F)c(-n2c(C)c(C)sc2=NCC(F)(F)F)cc1[S+]([O-])CC(F)(F)F (stereo not shown) [Example 344],–,–,–,"pest or weed control at 500 g/ha (Tetranychus urticae; application rate of 500 g/ha): 100%; chromatographic logP [1, 3]: 2.17; chromatographic logP ([2]; HPLC method [b]): 3.68"
Cc1cc(F)c(-n2nc(OCC(C)C)n(C)c2=O)cc1SCC(F)(F)F [Example 148],4.03,3.92,90%,–
CCC[S+]([O-])c1nn(-c2cc([S+]([O-])CC(F)(F)F)c(C)cc2F)c(=O)n1C (stereo not shown) [Example 246],1.99,1.95,100%,–
CNn1c(C2CC2)nn(-c2cc(SCC(F)(F)F)c(C)cc2F)c1=O [Example 199],3.15,3.07,100%,–
COc1cc(F)c(-n2nc(OCC(F)(F)F)n(C3CC3)c2=O)cc1SCC(F)(F)F [Example 188],3.49,3.46,–,efficacy (Tetranychus urticae; application rate of 100 g/ha): 90%
CCn1c([S+]([O-])CC)nn(-c2cc([S+]([O-])CC(F)(F)F)c(C)cc2F)c1=O (stereo not shown) [Example 252],1.90,1.87,100%,–
Cc1cc(F)c(-n2ccn(C(C)(C)C)c2=O)cc1SCC(F)(F)F [Example 488],3.69,3.63,100%,–
CCCc1nn(-c2cc(SCC(F)(F)F)c(C)cc2F)c(=O)n1C1CC1 [Example 79],3.64,3.56,100%,–
Cc1cc(F)c(-n2nc(SC(C)C)n(C3CC3)c2=O)cc1SCC(F)(F)F [Example 268],4.37,4.28,100%,–
C=C(C)CCOc1nn(-c2cc([S+]([O-])CC(F)(F)F)c(C)cc2F)c(=O)n1C1CC1 (stereo not shown) [Example 137],3.25,3.17,90%,–
Cc1cc(F)c(-n2nc(C)n(C3CC3)c2=O)cc1SCC(F)(F)F [Example 42],2.76,2.73,90%,–
COn1c(C(C)C)nn(-c2cc(SCC(F)(F)F)c(C)cc2F)c1=O [Example 418],3.52,3.49,90%,–
CCC(C)c1nn(-c2cc(SCC(F)(F)F)c(C)cc2F)c(=S)n1C1CC1 (stereo not shown) [Example 499],4.46,4.39,90%,–
O=c1n(-c2ccc(C(F)(F)F)c(SCC(F)(F)F)c2)nc(OCC(F)(F)F)n1C1CC1 [Example 189],4.55,4.48,100%,–
CCCc1nn(-c2cc(SCC(F)(F)F)c(C)cc2F)c(=O)o1 [Example 460],3.94,3.92,100%,–
CCCSc1nn(-c2cc(SCC(F)(F)F)c(C)cc2F)c(=O)n1C1CC1 [Example 265],4.41,4.32,100%,–
COc1nn(-c2cc(SCC(F)(F)F)c(Br)cc2F)c(=O)n1C [Example 175],3.04,2.98,–,efficacy (Tetranychus urticae; application rate of 100 g/ha): 100%
CCOCc1nn(-c2cc([S+]([O-])CC(F)(F)F)c(C)cc2F)c(=O)n1C1CC1 (racemic) [Example 74],2.31,2.25,100%,–
CCOc1nn(-c2cc(SCC(F)(F)F)c(C)cc2F)c(=O)n1CC [Example 401],3.62,3.53,100%,–
CCC[S+]([O-])c1nn(-c2cc([S+]([O-])CC(F)(F)F)c(C)cc2F)c(=O)n1CC (stereo not shown) [Example 251],2.22,2.18,100%,–
"CCn1ccn(-c2cc([S+]([O-])CC(F)(F)F)c(C)cc2F)c1=O (stereo not shown) [Example 487, 1-Ethyl-3-{2-fluoro-4-methyl-5-[(2,2,2-trifluoroethyl)sulphinyl]phenyl}-1,3-dihydro-2H-imidazol-2-one]",–,–,–,"pest or weed control at 500 g/ha (Tetranychus urticae; application rate of 500 g/ha): 90%; chromatographic logP [1, 3]: 1.83; chromatographic logP ([1]; pH 2.7, HPLC, pH 2.7, read-out: log P[a]): 1.83; chromatographic logP ([2]; HPLC): 1.81"
CCSc1nn(-c2cc(SCC(F)(F)F)c(C)cc2F)c(=O)n1CC [Example 292],3.91,3.86,100%,–
C=CCn1c(SCCC)nn(-c2cc(SCC(F)(F)F)c(C)cc2F)c1=O [Example 427],4.45,4.37,90%,–
COc1nn(-c2cc([S+]([O-])CC(F)(F)F)c(C)cc2F)c(=O)n1CC1CC1 (stereo not shown) [Example 412],2.54,2.52,100%,–
Cc1cc(F)c(-n2nc(CCOC(C)C)n(C3CC3)c2=O)cc1[S+]([O-])CC(F)(F)F (stereo not shown) [Example 362],2.63,2.61,90%,–
CCc1nn(-c2cc(SCC(F)(F)F)c(C)cc2F)c(=O)n1C1CC1 [Example 77],3.24,3.18,100%,–
CCCSc1nn(-c2cc([S+]([O-])CC(F)(F)F)c(C)cc2F)c(=O)n1C (stereo not shown) [Example 278],2.80,2.74,100%,–
Cc1cc(F)c(-n2nc(C3CC3)oc2=O)cc1SCC(F)(F)F [Example 456],3.62,3.55,100%,–

# Continued, in another order:
logP[a] [1],logP[b] ([2]; HPLC),Structure (SMILES),efficacy (Tetranychus urticae; application rate of 500 g/ha),further results
2.93,2.86,CCCOc1nn(-c2ccc(C)c([S+]([O-])CC(F)(F)F)c2)c(=O)n1C (stereo not shown) [Example 133],90%,–
4.50,4.44,Cc1cc(F)c(-n2nc(OC3CCCCC3)n(C)c2=O)cc1SCC(F)(F)F [Example 153],100%,–
4.35,4.33,CCCCc1nn(-c2cc(SCC(F)(F)F)c(C)cc2F)c(=O)o1 [Example 461],90%,–
4.30,4.25,Cc1cc(F)c(-n2nc(C(C)(C)C)oc2=O)cc1SCC(F)(F)F [Example 449],90%,–
5.22,5.17,Cc1ccc(-n2nc(OC3CCCCC3)n(C)c2=O)cc1SCC(F)(F)F [Example 155],100%,–
1.63,1.60,Cc1cc(F)c(-n2nc(N(C)C)n(N)c2=O)cc1[S+]([O-])CC(F)(F)F (stereo not shown) [Example 221],100%,–
3.58,3.44,CCOc1nn(-c2cc(SCC(F)(F)F)c(C)cc2F)c(=O)n1C1CC1 [Example 120],100%,–
2.02,1.99,Cc1cc(F)c(-n2nc(Br)n(C)c2=O)cc1[S+]([O-])CC(F)(F)F (stereo not shown) [Example 433],100%,–
3.84,3.79,COc1ccc(-n2nc(C(F)(F)F)n(C3CC3)c2=O)cc1SCC(F)(F)F [Example 52],90%,–
2.08,2.10,COCc1nn(-c2cc([S+]([O-])CC(F)(F)F)c(C)cc2F)c(=O)o1 (racemic) [Example 453],100%,–
2.02,2.01,Cc1cc(F)c(-n2ncn(N)c2=O)cc1SCC(F)(F)F [Example 211],100%,–
3.50,3.44,COc1cc(F)c(-n2nc(OCC(C)(C)C)n(C3CC3)c2=O)cc1[S+]([O-])CC(F)(F)F (stereo not shown) [Example 403],100%,–
4.05,3.96,CCCCc1nn(-c2cc(SCC(F)(F)F)c(C)cc2F)c(=O)n1C1CC1 [Example 71],90%,–
3.37,3.39,CC1=CC(=O)N(c2cc(SCC(F)(F)F)c(C)cc2F)C1=O [Example 340],90%,–
2.97,2.92,COC1=CC(=O)N(c2cc(SCC(F)(F)F)c(Cl)cc2F)C1 [Example 327],90%,–
3.70,3.63,Cc1cc(F)c(-n2nc(C3CC3)n(C(C)C)c2=O)cc1SCC(F)(F)F [Example 347],100%,–
3.70,3.66,Cc1cc(F)c(-n2nc(Oc3ccccc3)n(C)c2=O)cc1SCC(F)(F)F [Example 158],100%,–
4.85,4.78,Cc1cc(F)c(-n2nc(-c3ccc(Cl)cc3)oc2=O)cc1SCC(F)(F)F [Example 458],100%,–
2.28,2.22,COCc1nn(-c2cc(SCC(F)(F)F)c(C)cc2F)c(=O)n1N [Example 198],100%,–
